Measured values as given in PubChem BioAssay (NCI).
Where “and” joins values, the source holds several entries; their conditions need not be identical. Equal values may be shown once.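 In this assay, cells in 96-well plates receive the compound at five concentrations for 48 hours. Endpoints are linearly interpolated between the surrounding concentrations. GI50 marks 50% less growth. The concentration for full growth arrest is given as TGI.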

What was measured:
Test in all cases: NCI tumour cell line growth inhibition, 48 h
A549 NSCLC = tested on: A549 NSCLC
ACHN renal = tested on: ACHN renal
BT-549 breast = tested on: BT-549 breast
DLD-1 colon = tested on: DLD-1 colon
DMS 114 small cell lung = tested on: DMS 114 small cell lung
DMS 273 small cell lung = tested on: DMS 273 small cell lung
HOP-18 NSCLC = tested on: HOP-18 NSCLC
KM20L2 colon = tested on: KM20L2 colon
LXFL 529 NSCLC = tested on: LXFL 529 NSCLC
M19-MEL melanoma = tested on: M19-MEL melanoma
SNB-78 CNS = tested on: SNB-78 CNS
XF 498 CNS = tested on: XF 498 CNS

Compound | TGI (A549 NSCLC) | TGI (ACHN renal) | TGI (BT-549 breast) | other results
N#CCCSC1SC(=C2SC3=C(SCCS3)S2)SC1SCCC#N (centres undefined) | > 100 µM | > 100 µM | > 100 µM | –
CCOC(=O)NC(C(=O)OCC)C(F)(F)F (centres undefined) | > 100 µM | > 100 µM | – | –
O=C(Cc1ccccc1)NN1C(=O)C(Cl)C1c1ccc([N+](=O)[O-])cc1 (centres undefined) | > 100 µM | > 100 µM | – | TGI (DLD-1 colon): > 100 µM; TGI (DMS 114 small cell lung): > 100 µM; TGI (DMS 273 small cell lung): > 100 µM; TGI (HOP-18 NSCLC): > 100 µM; TGI (KM20L2 colon): > 100 µM; TGI (LXFL 529 NSCLC): > 100 µM; TGI (M19-MEL melanoma): > 100 µM; TGI (SNB-78 CNS): > 100 µM; TGI (XF 498 CNS): > 100 µM
N#Cc1c(-c2ccc(Cl)cc2)c(C#N)c(=O)n(NS(=O)(=O)c2ccccc2)c1S | > 100 µM | 85.3 µM | 66.1 µM | –
OCC1OC(NCCNCCNC2OC(CO)C(O)C(O)C2O)C(O)C(O)C1O (centres undefined) | > 100 µM | > 100 µM | > 100 µM | –
Cc1cnc(/N=c2\sc(C)cn2-c2ncc(C)s2)s1 | > 100 µM | > 100 µM | > 100 µM | –
O=C(c1ccco1)n1c2ccc(Br)cc2c2nc3ccccc3nc21 | – | > 100 µM | > 100 µM | –
N#CCC(=O)c1cc(OCc2cc(OCc3ccc(Br)cc3)cc(OCc3ccc(Br)cc3)c2)cc(OCc2cc(OCc3ccc(Br)cc3)cc(OCc3ccc(Br)cc3)c2)c1 | > 100 µM | > 100 µM | > 100 µM | –
COC(=O)[C@@H](O)[C@]1(C(=O)OC)C2O[C@@H](OC)[C@@H]1CCCCCC[C@H]2O | > 100 µM | > 100 µM | > 100 µM | –
c1ccc(-c2ccc(-c3cc4ccccc4[nH]3)cc2)cc1 | > 100 µM | > 100 µM | > 100 µM | –
COC(=O)C1CC=C(SC(=O)c2ccccc2)N1C(=O)c1ccccc1 (centres undefined) | > 100 µM | > 100 µM | > 100 µM | –
CC(O)(/C=C/c1ccccc1)P(=O)(O)c1ccccc1 (centres undefined) | > 100 µM | > 100 µM | – | –
C=C[C@H]1CC[C@H]2[C@@H]3CC=C4C[C@@H](OC5OCC(O)C(O)C5O)CC[C@]4(C)[C@H]3CC[C@]12C (some centres undefined) | 27.5 µM | 10.8 µM | – | –
C/C(=N\NC(=S)NC1CCCC1)c1ccccn1 | > 53.6 µM | 20.1 µM | 63.9 µM | –
COC(=O)C1=C(C(=O)OC)C2C(C)=CC(C)=CN2C(C#N)=C(SC)S1 (centres undefined) | > 100 µM | 60.5 µM | – | TGI (DLD-1 colon): 49.2 µM; TGI (DMS 114 small cell lung): 54.7 µM; TGI (DMS 273 small cell lung): > 100 µM; TGI (KM20L2 colon): 86.7 µM; TGI (LXFL 529 NSCLC): 37.6 µM; TGI (M19-MEL melanoma): 33.8 µM; TGI (SNB-78 CNS): > 100 µM
CC1(C)C2CCC(N)(C2)C1N (centres undefined) | > 100 µM | > 100 µM | > 100 µM | –
COc1ccc(Cc2c(N)[nH]c(=O)n(C)c2=O)cc1 | > 100 µM | > 100 µM | > 100 µM | –
CC1=C(O)C(=O)C[C@]2(C)[C@H]3CC=C4[C@@H]5CC(C)(C)CC[C@@H]5C(=O)[C@H](O)[C@@]4(C)[C@]3(C)CC[C@@H]12 | > 50 µM | > 50 µM | > 50 µM | –

Compound | TGI (A549 NSCLC) | TGI (ACHN renal) | TGI (BT-549 breast) | other results
COc1ccc(C(=O)/C=C/c2ccc(OCCSCCCCCCCCCCSCCOc3ccc(/C=C/C(=O)c4ccc(OC)cc4)cc3)cc2)cc1 | > 100 µM | > 100 µM | – | –
COc1cc(NCc2ccc3nc(-c4ccccc4)c(N)nc3c2)cc(OC)c1OC | 83.8 µM | > 100 µM | – | –
CSc1nc(-c2ccc(C)cc2)c(C#N)c(=O)[nH]1 | > 100 µM | > 100 µM | > 100 µM | –
COP(=O)(OC)C(=NCc1ccccc1)NNc1ccc([N+](=O)[O-])cc1 | > 100 µM | > 100 µM | – | TGI (DLD-1 colon): > 100 µM; TGI (DMS 114 small cell lung): 76 µM; TGI (DMS 273 small cell lung): > 100 µM; TGI (KM20L2 colon): > 100 µM; TGI (LXFL 529 NSCLC): > 100 µM; TGI (M19-MEL melanoma): > 100 µM
O=C(Cn1cc(F)c(=O)[nH]c1=O)C12CC3CC(CC(C3)C1)C2 | > 100 µM | > 100 µM | > 100 µM | –
COC(=O)C12OC(C)(C(CC(=O)OC(C)(C)C)C1=O)C1C(=O)N(c3ccccc3)C(=O)C12 (centres undefined) | > 100 µM | > 100 µM | > 100 µM | –
COc1ccc(C(=O)c2sc(Nc3ccccc3)nc2N)cc1 | > 100 µM | > 100 µM | > 100 µM | –
CCN1CN(c2ccccc2)C2(CCN(CCCSc3ccc(F)cc3)CC2)C1=O | 21.2 µM | 24.1 µM | 21.4 µM | –
O=C1NC(=S)NC(=O)C1C(c1ccc([N+](=O)[O-])cc1)C1C(=O)NC(=S)NC1=O | > 100 µM | > 100 µM | > 100 µM | –
COc1cc(C2c3cc4c(cc3[C@@H](NCCN3CCCCC3)C3COC(=O)[C@H]23)OCO4)cc(OC)c1O (some centres undefined) | 1.3 µM | – | – | TGI (DLD-1 colon): 6.78 µM and 10.2 µM; GI50 (DMS 114 small cell lung): 0.51 µM and 1.64 µM; TGI (DMS 114 small cell lung): 10.9 µM and 16 µM; TGI (DMS 273 small cell lung): 1.27 µM and 1.44 µM; TGI (HOP-18 NSCLC): 3.73 µM and 29.4 µM; TGI (KM20L2 colon): 8.14 µM and 11.5 µM; TGI (LXFL 529 NSCLC): 14.5 µM and 15.2 µM; TGI (M19-MEL melanoma): 5.4 µM and 4.14 µM; TGI (SNB-78 CNS): 8.09 µM and 23.3 µM; GI50 (XF 498 CNS): 0.585 µM and 1.27 µM; TGI (XF 498 CNS): 4.01 µM and 4.2 µM
O=c1[nH]c(=O)n(COCCO)c2ccc(Br)cc12 | > 100 µM | > 100 µM | – | –
c1cc(CSP234N5CCN2CCN3CCN4CC5)ccc1CSP123N4CCN1CCN2CCN3CC4 | > 100 µM | > 100 µM | > 100 µM | –
Cc1ccccc1NC(=O)C(=O)CC(=O)c1sc(Nc2ccccc2[N+](=O)[O-])nc1C | > 100 µM | 48.3 µM | 79 µM | –
COc1ccc(C2C3CCc4ccccc4C3=NN2S(=O)(=O)c2ccc(Cl)cc2)cc1 (centres undefined) | > 100 µM | 69.2 µM | > 100 µM | –
Cc1nc2ccc(F)cc2c2c1CCO2 | > 100 µM | > 100 µM | > 100 µM | –
CC(=O)O[C@@H]1[C@H]2[C@@H](OC(=O)c3ccccc3)[C@@H](C)C[C@]2(O)[C@H](OC(C)=O)[C@@]2(C)[C@@H]3CC(C)(C)C(=O)[C@]3(OC(C)=O)C[C@@]12C | – | > 25 µM | > 25 µM | –
Cc1cc(C)nc(NC(=S)Nc2ccccc2Cl)c1 | > 100 µM | – | > 100 µM | –
